Here are results for 2 compounds from patent US20090182035A1, “USE OF A COMBINATION OF OLOPATADINE AND CILOMILAST TO TREAT NON-INFECTIOUS RHINITIS AND ALLERGIC CONJUNCTIVITIS” (Alcon Research, Ltd., priority 2007, published 2009).

Test [1] deals with Guinea Pig Model of Passive Conjunctival Anaphylaxis. The test can be described thus: Passive conjunctival anaphylaxis, acute phase clinical score of conjunctivitis. The class given is in vivo. Conditions: 0.1% topical 20 μL drop 60 min prior to ovalbumin challenge, scored 30 min after challenge; for Clinical Score Mean: total score 0 to 10, groups of six; for Clinical Score % Inhibition: versus vehicle only, * P < 0.05. The protocol:
(§1) Drugs were prepared in standard ophthalmic suspension vehicle and allowed to vortex overnight. Cilomilast and olopatadine were prepared in the same drop by preparing separate 0.2% formulations and then combining them 50:50 to yield a 0.1% concentration of each drug. In groups where cilomilast and olopatadine were given in consecutive drops, olopatadine was applied first followed 5 minutes later by cilomilast. All topical drops were administered as a single 20 μL application. Guinea pigs (male Hartley outbred, 250-300 g) were divided into groups of six. Animals were passively sensitized to ovalbumin by a single subconjunctival injection to the right eye of 10 μL of undiluted anti-ovalbumin guinea pig serum (antiserum). One group was injected with saline only. Twenty-four hours after sensitization all groups were topically challenged with 0.5 mg of ovalbumin in saline to the right eye. Animals were pre-treated with drug or vehicle 60 minutes prior to challenge. Thirty minutes after topical challenge each animal was scored by a masked observer for clinical signs of conjunctivitis, redness/congestion, swelling, and tearing/discharge, with a total score of 0 to 10. Animals were dosed a second time with drug or vehicle 8 hours after challenge. Animals were euthanized 24 hours after challenge and conjunctivae were collected and assayed for eosinophil peroxidase (EPO) activity, an indirect marker of tissue eosinophil concentration. Briefly, tissue samples were weighed frozen, then mechanically homogenized in 50 mM HEPES buffer, pH 6.5, containing 0.5% cetyltrimethylammonium chloride and 6 mM KBr. Homogenates were freeze-thawed three times and sonicated.

The test system of test [2] is eosinophil peroxidase (EPO) activity. Description: Passive conjunctival anaphylaxis, eosinophil peroxidase (EPO) activity in conjunctivae (allergic inflammation). The test is classed as in vivo, guinea pig. The conditions noted are these: 0.1% topical 20 μL drop 60 min prior to and 8 hours after challenge; for EPO Activity % Inhibition: conjunctivae 24 hours after challenge, versus vehicle only, * P < 0.05; for EPO Activity Mean: conjunctivae collected 24 hours after challenge. The protocol:
as §1

On to `COc1ccc([C@]2(C#N)CC[C@@H](C(=O)O)CC2)cc1OC1CCCC1` [Cilomilast], for which, in test [1], the “Clinical Score Mean” value is recorded as 4.2 and the “Clinical Score % Inhibition” value was found to be 37.5%. For the same compound, in test [2], the “EPO Activity % Inhibition” value is given as 62.8* % and the “EPO Activity Mean” value stood at 582.26 ng EPO/mg tisue.
With `CN(C)CC/C=C1/c2ccccc2COc2ccc(CC(=O)O)cc21` [Olopatadine], in test [1], the “Clinical Score Mean” value was 2.2 and the “Clinical Score % Inhibition” value is given as 67.5* %. In test [2], the “EPO Activity % Inhibition” value was 15.8% and the “EPO Activity Mean” value stood at 1320.23 ng EPO/mg tisue.
